Patent publication US4563527A, “Amidine compounds” (Torii & Co., Ltd., priority 1984, dated 1986)
Where two headings read alike, the source gives them in different places.

What was measured:
Thrombin = Thrombin (Homo sapiens, UniProt P00734); assay: biochemical; conditions: for IC50: read-out: ID50 thrombin
C1r = molecular target: T1, C1r (Homo sapiens, UniProt P00736); assay: biochemical; conditions: read-out: ID50 C1r (Anti-C1 activity)
T1 sequence (P00736 464-705 limits assumed): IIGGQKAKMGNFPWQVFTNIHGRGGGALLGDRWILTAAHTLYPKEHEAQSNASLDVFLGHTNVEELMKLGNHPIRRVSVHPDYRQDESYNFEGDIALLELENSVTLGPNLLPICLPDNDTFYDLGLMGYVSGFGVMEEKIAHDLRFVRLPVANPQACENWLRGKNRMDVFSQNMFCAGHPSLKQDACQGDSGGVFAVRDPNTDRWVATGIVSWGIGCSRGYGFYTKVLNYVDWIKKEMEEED
T1 sequence (P00736 18-463 partner limits assumed): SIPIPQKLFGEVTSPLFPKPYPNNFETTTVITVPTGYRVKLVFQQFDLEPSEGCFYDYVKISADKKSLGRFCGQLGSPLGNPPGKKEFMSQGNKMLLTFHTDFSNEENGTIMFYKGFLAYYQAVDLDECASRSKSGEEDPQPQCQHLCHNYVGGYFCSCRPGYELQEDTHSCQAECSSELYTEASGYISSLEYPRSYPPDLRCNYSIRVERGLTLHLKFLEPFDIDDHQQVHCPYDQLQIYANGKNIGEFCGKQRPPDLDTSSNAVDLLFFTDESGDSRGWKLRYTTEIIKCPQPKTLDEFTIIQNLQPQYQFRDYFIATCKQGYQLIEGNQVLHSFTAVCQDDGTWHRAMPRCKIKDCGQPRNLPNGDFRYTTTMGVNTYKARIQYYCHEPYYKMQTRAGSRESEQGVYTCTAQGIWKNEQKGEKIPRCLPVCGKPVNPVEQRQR

C1s = molecular target: T2, C1s (Homo sapiens, UniProt P09871); assay: Anti-C1s activity (hydrolysis of ATEE); format: biochemical; conditions: molar concentration inhibiting 50% of ATEE hydrolysis; read-out: ID50 C1s (Anti-C1 activity)
T2 sequence (P09871 438-688 limits assumed): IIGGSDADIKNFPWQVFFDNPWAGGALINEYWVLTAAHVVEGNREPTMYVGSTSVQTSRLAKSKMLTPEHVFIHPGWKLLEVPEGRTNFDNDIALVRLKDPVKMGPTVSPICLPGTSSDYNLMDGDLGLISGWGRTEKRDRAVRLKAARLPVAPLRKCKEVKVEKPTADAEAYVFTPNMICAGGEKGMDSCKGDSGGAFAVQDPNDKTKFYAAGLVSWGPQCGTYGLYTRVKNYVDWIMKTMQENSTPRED
T2 sequence (P09871 16-437 partner limits assumed): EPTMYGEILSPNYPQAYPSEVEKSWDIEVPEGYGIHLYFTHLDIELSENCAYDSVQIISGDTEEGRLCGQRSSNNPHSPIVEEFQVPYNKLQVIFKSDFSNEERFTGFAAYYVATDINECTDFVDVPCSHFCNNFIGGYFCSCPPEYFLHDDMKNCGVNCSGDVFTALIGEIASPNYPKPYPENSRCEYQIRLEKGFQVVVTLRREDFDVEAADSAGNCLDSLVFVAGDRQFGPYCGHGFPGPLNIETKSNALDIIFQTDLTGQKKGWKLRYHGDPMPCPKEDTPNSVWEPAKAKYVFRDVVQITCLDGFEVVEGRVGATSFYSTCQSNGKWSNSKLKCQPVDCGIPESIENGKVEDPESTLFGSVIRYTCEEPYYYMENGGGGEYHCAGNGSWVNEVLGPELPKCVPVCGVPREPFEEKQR
Procedure: The anti-C1 esterase (C1r, C1s) activity was determined according to the method of Okamura et al. [K. Okamura, M. Muramatsu and B. Fujii, Biochem. Biophys. Acta, 295, 252-257 (1973)]. The inhibition of complement mediated hemolysis was determined according to the method of Baker et al. [B. R. Baker and E. H. Erickson, J. Med. Chem. 12, 408-414 (1969)]. The figures in Table 2 have the following meanings:
C1s: Molar concentration of the test compound which inhibits 50% of the ability of C1s to hydrolyse ATEE (acetyltyrosin ethyl ester) (ID50).

Trypsin = molecular target: T3, Trypsin (Bos taurus, UniProt P00760); assay: Anti-trypsin activity (hydrolysis of TAME); format: biochemical; conditions: molar concentration inhibiting 50% of TAME hydrolysis; read-out: ID50 trypsin
T3 sequence (P00760 24-246): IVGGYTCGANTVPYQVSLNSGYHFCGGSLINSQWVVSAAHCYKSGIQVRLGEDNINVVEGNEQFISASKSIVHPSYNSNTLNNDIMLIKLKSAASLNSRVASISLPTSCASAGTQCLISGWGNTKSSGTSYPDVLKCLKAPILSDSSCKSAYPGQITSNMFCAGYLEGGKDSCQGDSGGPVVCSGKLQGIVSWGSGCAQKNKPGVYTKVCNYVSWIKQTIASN
Procedure: (§1) The anti-trypsin, anti-plasmin, anti-kallikrein and anti-thrombin activities were determined according to the method of Muramatsu et al. [M. Muramatus, T. Onishi, S. Makino, Y. Hayashi and S. Fujii, J. of Biochem., 58, 214 (1965)]. The data summarized in Table 1 are expressed in terms of molar concentration (ID50) of the test compound which inhibits 50% of the activity of each enzyme to hydrolyze TAME (tosylalginine methyl ester). The compound No. corresponds to the compound number shown in Examples.

complement = assay: Inhibition of complement mediated hemolysis; format: cell-based
Procedure: The complement mediated hemolysis is widely used as a means to determine the titration of complement. The principle of this method is based on the fact that hemolysis is caused by the activation of complement, when the latter is added to a complex (immune complex) of erythrocytes and the antibody thereof. The degree of hemolysis varies in proportion to the amount of complement added. Therefore, when a known amount of complement admixed with a C1 esterase inhibitor is used, the hemolysis must be suppressed in proportion to the inhibitory activity.
The anti-C1 esterase (C1r, C1s) activity was determined according to the method of Okamura et al. [K. Okamura, M. Muramatsu and B. Fujii, Biochem. Biophys. […] The figures in Table 2 have the following meanings: […]

Plasmin = Plasmin (Homo sapiens, UniProt P00747); assay: Anti-plasmin activity (hydrolysis of TAME); format: biochemical; conditions: molar concentration inhibiting 50% of TAME hydrolysis; read-out: ID50 plasmin
Plasmin, sequence (P00747 581-810 limits assumed, species assumed): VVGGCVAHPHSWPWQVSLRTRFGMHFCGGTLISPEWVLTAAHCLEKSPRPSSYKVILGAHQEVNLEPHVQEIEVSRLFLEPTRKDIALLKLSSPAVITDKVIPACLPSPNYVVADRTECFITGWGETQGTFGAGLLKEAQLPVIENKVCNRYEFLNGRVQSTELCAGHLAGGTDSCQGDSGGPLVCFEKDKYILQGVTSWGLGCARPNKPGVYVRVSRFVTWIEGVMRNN
Plasmin, sequence (P00747 97-580 partner limits assumed, species assumed): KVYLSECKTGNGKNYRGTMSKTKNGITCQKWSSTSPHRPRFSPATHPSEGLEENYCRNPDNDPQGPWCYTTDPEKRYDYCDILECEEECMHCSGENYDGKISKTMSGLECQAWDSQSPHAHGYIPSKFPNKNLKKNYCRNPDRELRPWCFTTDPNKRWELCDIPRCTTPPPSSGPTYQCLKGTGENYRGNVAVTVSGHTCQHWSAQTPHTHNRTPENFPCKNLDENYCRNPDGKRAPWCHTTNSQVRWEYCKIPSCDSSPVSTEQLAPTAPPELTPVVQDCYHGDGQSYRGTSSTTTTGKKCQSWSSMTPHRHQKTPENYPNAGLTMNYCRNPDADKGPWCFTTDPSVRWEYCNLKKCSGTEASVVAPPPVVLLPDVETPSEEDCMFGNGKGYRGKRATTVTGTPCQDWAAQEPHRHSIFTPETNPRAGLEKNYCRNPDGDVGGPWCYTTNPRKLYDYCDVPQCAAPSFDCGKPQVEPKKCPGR
Procedure: The anti-trypsin, anti-plasmin, anti-kallikrein and anti-thrombin activities were determined according to the method of Muramatsu et al. [M. Muramatus, T. Onishi, S. Makino, Y. Hayashi and S. Fujii, J. of Biochem., 58, 214 (1965)]. […] The compound No. corresponds to the compound number shown in Examples.

Kallikrein = assay: Anti-kallikrein activity (hydrolysis of TAME); format: biochemical; conditions: molar concentration inhibiting 50% of TAME hydrolysis; read-out: ID50 kallikrein
Procedure: as §1

[1] = molar concentration inhibiting 50% of TAME hydrolysis
[2] = molar concentration inhibiting 50% of AAME hydrolysis

Row | Compound | IC50 (Thrombin; [1]) [nM] | IC50 (C1r; [2]) [nM] | IC50 (C1s) [nM] | IC50 (Trypsin) [nM] | Inhibition of complement mediated hemolysis (%) (complement; 1 × 10^-5) | Inhibition of complement mediated hemolysis (%) (complement; 1 × 10^-6) | Inhibition of complement mediated hemolysis (%) (complement; 1 × 10^-7) | IC50 (Plasmin) [nM] | IC50 (Kallikrein) [nM] | IC50 (C1r) [nM] | inhibition at 10 µM (Thrombin; figure in parentheses, at 1×10^-5 M, TAME, read-out: percentage inhibition of thrombin) [%] | IC50 (Thrombin) [nM]
1 | N=C(N)c1ccc2cc(OC(=O)c3ccc(CNC(=O)c4cccnc4)o3)ccc2c1 [compound 16] | 400 | 400 | 300 | 1000 | 100 | 100 | 97 | 1000 | 400 |  |  | 
2 | N=C(N)Nc1ccc(C(=O)NCc2ccc(C(=O)Oc3ccc4cc(C(=N)N)ccc4c3)o2)cc1 [compound 15] | 600 |  | 400 | 200 | 100 | 100 | 99 | 300 | 400 | 300 |  | 
3 | N=C(N)c1ccc2cc(OC(=O)c3ccc(CNC(=O)C4CCC(CN)CC4)o3)ccc2c1 (stereo not drawn) [compound 38] | 80 | 300 | 3000 | 500 | 100 | 100 | 98 | 400 | 300 |  |  | 
4 | N=C(N)NCc1ccc(C(=O)Oc2ccc3cc(C(=N)N)ccc3c2)s1 [compound 28] |  | 2000 | 3000 | 4000 | 100 | 82 | 35 | 9000 | 4000 |  | 46 | 
5 | N=C(N)c1ccc2cc(OC(=O)c3ccc(CNC(=O)C(N)CCCCN)o3)ccc2c1 (stereo not drawn) [compound 35] |  | 2000 | 3000 | 8000 | 100 | 100 | 71 | 3000 | 900 |  |  | 3000
6 | CNC(=N)Nc1ccc(C(=O)Oc2ccc3cc(C(=N)N)ccc3c2)o1 [compound 5] | 200 | 1000 | 300 | 300 | 100 | 100 | 96 | 500 | 500 |  |  | 
7 | N=C(N)Nc1ccc(C(=O)Oc2ccc3cc(C(=N)N)ccc3c2)o1 [Compound No. 3] | 300 | 700 | 300 | 100 | 100 | 100 | 99 | 500 | 900 |  |  | 
8 | N=C(N)c1ccc2cc(OC(=O)c3ccc(CN4CCOCC4)o3)ccc2c1 [compound 25] |  | 1000 | 2000 | 700 | 100 | 98 | 82 | 600 | 2000 |  |  | 3000
9 | N=C(N)c1ccc2cc(OC(=O)c3ccc(CN)o3)ccc2c1 [compound 33] |  | 700 | 2000 | 500 | 97 | 97 | 81 | 400 | 4000 |  |  | 3000
10 | N=C(N)c1ccc2cc(OC(=O)c3ccc(CNC(=O)CCOCc4ccccc4)o3)ccc2c1 [compound 18] | 500 | 300 | 3000 | 900 | 100 | 100 | 97 | 500 | 500 |  |  | 
